Results published in patent US20220289731A1, “MELANOCORTIN-4 RECEPTOR AGONISTS” (LG CHEM, LTD., priority 2019, published 2022).

How the values were obtained:
[1] = test system: mouse obesity model induced by high fat diet; test: Mouse obesity model induced by high fat diet; type: in vivo, C57BL/6Ntaconic mice; conditions: oral once a day, high-fat-diet obese mice
Experimental: The effect of melanocortin-4 receptor agonists on obesity was evaluated by using the mouse obesity model induced with a high fat diet.
Five-week-old male C57BL/6Ntaconic mice were fed with a 60 kcal % fat diet (D12492, Research Diet.) for 15 weeks to induce obesity. The compound of Example 1, the compounds of the comparative examples (A95 and A96), and sibutramine as a positive control were prepared in distilled water and orally administered to […] mouse obesity models induced by a high-fat diet once a day from day 1 to day 16. From Day 1 to Day 16, the body weight was measured once a day, the dietary intake was measured five times a week, and drinking water intake was measured twice a week. Blood glucose and glycated hemoglobin were measured on Day 15, and all animals were sacrificed on Day 17. Blood was collected through the abdominal vena cava, and the liver and epididymal adipose tissues were removed and weighed. The collected blood was placed in a heparin tube and centrifuged to separate plasma, and then plasma biochemical analysis was performed.

[2] = target: T1, MC4R (Homo sapiens, UniProt P32245); test: Luciferase assay (HEK MC4R-Luc, CRE-LUC); type: cell-based; parameters: expressed in transfected cells; conditions: HEK MC4R-Luc cells, 5 h incubation
Experimental: In order to measure the agonist ability against MC4R (melanocortin-4 receptor), a cell line that permanently expresses the luciferase gene (CRE-LUC) under the control of MC4R and CRE (cAMP response element) was established. After a mammalian cell expression vector (pCDNA3 (Neo)) (Invitrogen) containing the MC4R gene was prepared, human embryonic kidney (HEK) cell lines were transformed by using Lipofectamine 2000 (Invitrogen) together with a vector (pCRE-Luc)(Stratagen) expressing a luciferase gene (CRE-LUC) under the control of a cAMP response element (CRE). Transformed cell lines (HEK MC4R-Luc) were incubated in a 37° C. incubator in the presence of 5% CO2 for 24 hours by using Dulbecco's Modified Eagles Medium (DMEM) containing 10% Heat-Inactivated Fetal Bovine Serum (GIBCO/BRL). The cell lines were incubated for four days in the presence of Dulbecco's Modified Eagles Medium (DMEM) containing 10 ml of selection medium (10% Heat-Inactivated Fetal Bovine Serum (GIBCO/BRL), 100 unit/ml of penicillin (GIBCO/BRL), 100 unit/ml of streptomycin (GIBCO/BRL), 800 μg/ml of Geneticin (G418) (GIBCO/BRL). The process of removing cells killed by the selection medium by replacing the medium with 10 ml of a new selection medium was repeated three times, once every 4 days. Individual colonies formed by the finally selected and propagated clones were transferred under a microscope to a 24-well cell culture plate containing 1 ml of selection medium per well and incubated for 4 days. Forskolin (SIGMA) was treated to a final concentration of 10 μM, and then incubated for five hours in a 37° C. incubator in the presence of 5% CO2. Each well was treated with 50 μl of a Bright-Glo luciferase reagent (Promega) and left at room temperature for 15 minutes, and then the luminescence of each well was measured by using a luminometer (Victor).
HEK MC4R-Luc cells were added to each well of a 96-well luminometer cell culture plate (Costar) to a size of 2.5×10^4 cells in 100 μl of a culture medium and then incubated in a 37° C. incubator in the presence of 6% CO2 for 18 hours. […] Each well was treated with 50 μl of a Bright-Glo luciferase reagent (Promega) and left at room temperature for five minutes, and then the luminescence of each well was measured by using a luminometer (Victor). […] EC0.5 MSH is expressed as a concentration that induces 50% of the maximum amount of luminescence that can be induced by NDP-α-MSH, and EC50 is expressed as a concentration that induces 50% of the maximum amount of luminescence that can be induced by each agonist. The measurements were measured using statistical software (Prizm).

[3] = target: T1, MC4R; test: cAMP assay (cAMP Hunter Gs-coupled CHO-K1 cell line); type: cell-based; parameters: expressed in transfected cells; host or cells: CHO-K1 (cAMP Hunter Gs-coupled cell line); conditions: CHO-K1 cells overexpressing MC4R, 30 min at 37° C.
From the text: The melanocortin receptor is a type of G-protein coupled receptor (GPCR), and the main role of G-protein is to activate secondary transducers to regulate cellular responses to many physiological stimuli through signal transduction. MC4R is a Gs-coupled receptor, and it is known that if MC4R interacts with an agonist, adenylate cyclase (AC) is activated to increase the concentration of cyclic AMP (cAMP), which is one of the secondary transducers in cells. Therefore, it is possible to evaluate the activity of melanocortin receptors by measuring the generation of cAMP signals.
After cAMP Hunter Gs-coupled cell lines (CHO-K1 cell line) in which each of MC1R, MC3R, MC4R and MCSR was overexpressed were established so that the increase in the cAMP level in cells due to agonist reaction was measurable, the cells were inoculated into each well of a white cell culture plate and incubated for 24 hours in a 37° C. incubator in the presence of 5% CO2. After the incubation, the medium was removed, and 15 μl of a 2:1 HBBS/10 mM HEPES:cAMP XS+Ab reagent was added. After 5 μl of the sample diluted 4 times with buffer was added, the vehicle concentration was set to 1%, and the MC4R agonist compound diluted at each step concentration was added, followed by reaction at 37° C. for 30 minutes. The activity (%) of each agonist compound is expressed as 100%×(average RLU value of sample−average RLU value of vehicle control)/(average RLU value of max control−average RLU value of vehicle control), and the value was analyzed by CBIS data analysis suite (ChemInnovation, CA).

[4] = target: CYP3A4 (Homo sapiens, UniProt P08684); test: CYP inhibition, recombinant enzyme, fluorescence; type: in vitro ADME; conditions: recombinant CYP3A4, pH 7.4, 10 μM compound, 30 min pre-incubation, read-out: CYP inhibition (%) at 10 μM, 3A4
Experimental: The following Table 8 was referred for the use of a probe substrate, positive control, and isozyme and measurement conditions with respect to the measurement of the inhibitory ability of each substance. [table] […] The buffer spiked with experimental compound was mixed with the same volume of CYP isozyme prep solution so that the final concentration was 10 μM, followed by pre-warming for 10 minutes in a 37° C. fluorescence plate-reader. Each well NRS solution (NADPH Regeneration System: 0.22 mM β-NADP, 2.8 mM glucose-6-phosphate, and 0.6 units/mL of glucose-6-phosphate dehydrogenase) was added, followed by pre-incubation for 30 minutes. Thereafter, the reaction was initiated by adding the substrate to the well subjected to pre-incubation and monitored at intervals of one minute at the measurement wavelength for each substrate for 30 minutes. The measured values obtained from the positive control and the compound of Example 1 were compared with the fluorescence intensity of a negative control (no inhibition or compound) to confirm the inhibitory ability of each compound against isozyme. Inhibitory activity (%) was expressed based on the following criteria: […]

T1 sequence (P32245 whole entry, species assumed): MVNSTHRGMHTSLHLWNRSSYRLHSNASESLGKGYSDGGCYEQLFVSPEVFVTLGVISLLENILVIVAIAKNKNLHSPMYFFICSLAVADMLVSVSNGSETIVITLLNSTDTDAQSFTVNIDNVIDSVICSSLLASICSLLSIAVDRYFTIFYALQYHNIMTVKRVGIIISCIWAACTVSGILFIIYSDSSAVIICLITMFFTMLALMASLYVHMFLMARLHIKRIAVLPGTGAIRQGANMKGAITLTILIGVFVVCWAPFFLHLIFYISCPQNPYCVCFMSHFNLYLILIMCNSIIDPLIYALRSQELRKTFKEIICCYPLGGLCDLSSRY
Sequence of CYP3A4 (P08684 whole entry): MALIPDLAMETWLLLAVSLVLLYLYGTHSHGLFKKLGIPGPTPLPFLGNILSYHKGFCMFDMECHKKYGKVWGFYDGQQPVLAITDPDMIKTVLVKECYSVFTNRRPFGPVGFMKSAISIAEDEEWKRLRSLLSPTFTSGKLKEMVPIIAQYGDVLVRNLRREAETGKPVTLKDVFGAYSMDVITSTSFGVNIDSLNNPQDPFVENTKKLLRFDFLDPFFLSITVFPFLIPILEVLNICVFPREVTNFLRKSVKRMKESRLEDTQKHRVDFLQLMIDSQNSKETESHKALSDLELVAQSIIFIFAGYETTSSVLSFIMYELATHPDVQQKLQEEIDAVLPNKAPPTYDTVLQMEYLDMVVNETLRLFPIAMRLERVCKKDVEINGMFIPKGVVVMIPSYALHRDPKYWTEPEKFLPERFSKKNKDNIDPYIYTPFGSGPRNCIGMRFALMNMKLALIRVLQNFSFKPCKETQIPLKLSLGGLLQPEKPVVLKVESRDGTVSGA

SMILES	Difference in weight change rate to vehicle ([1]; Day 12, 10 mg/kg) [%]	Difference in weight change rate to vehicle ([1]; Day 12, 30 mg/kg) [%]	EC50 [2] [nM]	EC50 [3] [nM]	inhibition at 30 min, 10 µM [4] [%]
CC(=O)N(C1CCC(C)(C)CC1)[C@H]1C[C@@H](C(=O)N2CCOCC2)N(C(=O)[C@@H]2CN(C(C)(C)C)C[C@H]2c2ccc(F)cc2F)C1.Cl [Comparative Example 1 (A95), N-((3S,5S)-1-((3S,4R)-1-(tert-butyl)-4-(2,4-difluorophenyl)pyrrolidine-3-carbonyl)-5-(morpholine-4-carbonyl)pyrrolidin-3-yl)-N-(4,4-dimethylcyclohexyl)acetamide hydrochloride]	−4.8	−4.0	17.4	335	
CC(=O)N(C1CCC(C)(C)CC1)[C@H]1C[C@@H](C(=O)N2CCOCC2)N(C(=O)[C@@H]2CN(C(C)(C)C)C[C@H]2c2ccc(Cl)cc2)C1.Cl [Comparative Example 2 (A96), N-((3S,5S)-1-((3S,4R)-1-(tert-butyl)-4-(4-chlorophenyl)pyrrolidine-3-carbonyl)-5-(morpholine-4-carbonyl)pyrrolidin-3-yl)-N-(4,4-dimethylcyclohexyl)acetamide hydrochloride]	−0.2	−7.1	5.48	150	< 50
CC(C)C(=O)N([C@H]1C[C@@H](C(=O)N2CCOCC2)N(C(=O)[C@@H]2CN(C(C)(C)C)C[C@H]2c2ccc(Cl)cc2)C1)[C@H]1CC[C@@H](C)CC1.Cl [Example 1, N-((3S,5S)-1-((3S,4R)-1-(tert-butyl)-4-(4-chlorophenyl)pyrrolidine-3-carbonyl)-5-(morpholine-4-carbonyl)pyrrolidin-3-yl)-N-((1s,4R)-4-methylcyclohexyl)isobutyramide hydrochloride]			0.562	36.5	< 50
